This is an account of results in ChEMBL document CHEMBL1151546, “A new structural analogue antagonist of peptido-leukotrienes. The discovery of bay x7195” (Bioorg Med Chem Lett, 1993).

Bounds are passed on as bounds.

The target in experiment [1] is T1, Cysteinyl leukotriene receptor 1 (Cavia porcellus) (UniProt Q2NNR5).
T1 sequence (whole entry): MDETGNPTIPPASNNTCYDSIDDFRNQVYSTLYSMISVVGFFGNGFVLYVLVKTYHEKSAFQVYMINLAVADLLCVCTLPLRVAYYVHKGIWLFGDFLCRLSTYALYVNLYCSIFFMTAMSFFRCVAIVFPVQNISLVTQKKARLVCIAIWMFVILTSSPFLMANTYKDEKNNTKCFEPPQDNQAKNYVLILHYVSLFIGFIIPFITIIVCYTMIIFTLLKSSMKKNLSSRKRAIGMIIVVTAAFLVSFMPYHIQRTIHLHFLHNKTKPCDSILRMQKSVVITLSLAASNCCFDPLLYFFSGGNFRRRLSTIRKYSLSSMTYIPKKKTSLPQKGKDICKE
Kind of experiment: Compound was evaluated for its antagonist affinity at 10 (uM) on guinea-pig trachea rings against LTD4 receptor. The experiment is classed as functional, tissue-based.

Experiment [2] has as its target T2, Cysteinyl leukotriene receptor 1 (Cavia porcellus, UniProt Q2NNR5).
T2 sequence (Q2NNR5 whole entry): T1 sequence (whole entry)
Nature of the experiment: (§1) Compound was evaluated for its antagonist affinity at 0.1 uM on guinea-pig trachea rings against LTD4 receptor. The experiment is classed as functional, tissue-based. The conditions noted are these: read-out: pA2 (converted).

The subject of experiment [3] is Cavia porcellus. Kind of experiment: Compound was tested in vivo for antagonistic potency of LTD4 induced contractions of guinea-pig trachea after oral administration. The class given is functional. The conditions noted are these: read-out: ID50 (the source's name).
For experiment [4], the species on record is Cavia porcellus. Nature of the experiment: spontaneously compound was tested for oral activity against LTD4 in spontaneously-breathing guinea pigs. The experiment is classed as functional. The conditions noted are these: read-out: ID50 (the source's name).
Experiment [5] concerns the target T1, Cysteinyl leukotriene receptor 1 (Cavia porcellus). The description is as §1. The class given is functional, tissue-based.
Experiment [6] deals with T3, Cysteinyl leukotriene receptor 1 (Homo sapiens) (UniProt Q9Y271).
T3 sequence (whole entry): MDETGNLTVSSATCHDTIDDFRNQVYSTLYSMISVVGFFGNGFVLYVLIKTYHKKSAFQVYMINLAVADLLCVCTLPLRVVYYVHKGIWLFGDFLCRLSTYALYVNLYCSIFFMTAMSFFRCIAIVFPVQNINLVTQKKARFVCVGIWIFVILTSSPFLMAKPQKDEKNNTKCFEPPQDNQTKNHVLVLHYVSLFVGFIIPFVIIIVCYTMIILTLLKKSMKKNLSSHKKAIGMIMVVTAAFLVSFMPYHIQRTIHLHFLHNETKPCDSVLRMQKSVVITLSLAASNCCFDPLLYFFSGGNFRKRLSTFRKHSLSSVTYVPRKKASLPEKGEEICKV
Nature of the experiment: Compound was evaluated for its antagonist affinity against LTD4 on human bronchial muscle. The experiment is classed as functional, tissue-based. Particulars: Muscle tissue.

The target in experiment [7] is T1, Cysteinyl leukotriene receptor 1 (Cavia porcellus). Nature of the experiment: Compound was evaluated for its antagonist affinity at 1 uM on guinea-pig trachea rings against LTD4 receptor. The class given is functional, tissue-based.
The target of experiment [8] is T2, Cysteinyl leukotriene receptor 1. Nature of the experiment: Compound was evaluated for its binding affinity on guinea-pig ileum. The experiment is classed as tissue-based.
Experiment [9] shares this target. Nature of the experiment: Inhibition of [3H]LTD4 binding to guinea-pig lung membranes. The class given is tissue-based, Membrane.
The species entered for experiment [10] is Cavia porcellus. Kind of experiment: Compound was evaluated for its agonist activity on guinea-pig ileum, value expressed as the negative logarithm of the ED50 value. The class given is functional.

For orientation: pKB means the KB on a negative log10 scale, so that one unit is a factor of ten. Consider `O=C(O)CCC[C@H](O)[C@@H](/C=C\Cc1cccc(OCCCOc2ccccc2)c1)Sc1ccc(C(=O)O)cc1`, for which the negative logarithm of the KB (pKB) in experiment [1] was less than 5. In the case of `O=C(O)CCC(/C=C/Cc1ccc(OCCCCOc2ccccc2)cc1)Sc1ccc(C(=O)O)cc1` (single isomer, unassigned; (-)), in experiment [2], the Kb was 100 nM.

In the case of `O=C(O)CCC[C@H](O)[C@@H](/C=C\Cc1ccc(OCCCCOc2ccccc2)cc1)Sc1ccc(C(=O)O)cc1`, the negative-log KB (pKB) in experiment [1] was determined as 8.3. The ED50 in the experiment on Cavia porcellus [3] was approximately 3 mg/kg. With `O=C(O)CCC[C@H](O)[C@@H](/C=C\c1cccc(OCCCCOc2ccccc2)c1)Sc1ccc(C(=O)O)cc1`, the pKB in [1] was less than 5. As to `O=C(O)CCC(/C=C\Cc1ccc(OCCCCOc2ccccc2)cc1)Sc1ccc(C(=O)O)cc1` (stereo unspecified), the ED50 in the experiment filed under Cavia porcellus [4] worked out at 2 mg/kg. For the same molecule, the pKB in experiment [5] stood at 8.4; in [6], 8. In turn, `O=C(O)c1ccc(SC(/C=C\Cc2ccc(OCCCCOc3ccccc3)cc2)C(=O)O)cc1` (stereo unspecified) displayed a pKB in experiment [7] of 6.4. Turning to `O=C(O)CCC[C@H](O)[C@@H](/C=C/c1cccc(OCCCCOc2ccccc2)c1)Sc1ccc(C(=O)O)cc1`, in [1], the pKB came out at 6.8.

As a reminder, the Ki is the equilibrium dissociation constant of an inhibitor or competing ligand from its target. As for `CCCCC/C=C\C\C=C/C=C/C=C/[C@@H](Sc1ccc(C(=O)O)cc1)[C@@H](O)CCCC(=O)O`, the affinity in experiment [8] corresponds to a Ki of 100 nM. In experiment [9], `O=C(O)CCC[C@H](O)[C@@H](/C=C\CCCCCCCCCOc1ccccc1)Sc1ccc(C(=O)O)cc1` had a Ki of 316 nM. Same read-out and setting: next, `O=C(O)CCC[C@H](O)[C@@H](/C=C\CCCCCCCCCCCCCc1ccccc1)Sc1ccc(C(=O)O)cc1`: 5010 nM. `O=C(O)CCCC(/C=C\Cc1ccc(OCCCCOc2ccccc2)cc1)Sc1ccc(C(=O)O)cc1` (stereo unspecified) came in with a pKB in experiment [7] of 7. Turning to `O=C(O)CCC[C@H](O)[C@@H](/C=C\c1ccccc1OCCCCOc1ccccc1)Sc1ccc(C(=O)O)cc1`, the pKB in experiment [1] was less than 5.

The molecule `O=C(O)CCC[C@H](O)[C@@H](/C=C/CCc1ccccc1)Sc1ccc(C(=O)O)cc1` showed a Ki in experiment [9] of more than 100000 nM. In [1], `O=C(O)CCC[C@H](O)[C@@H](/C=C\c1ccc(OCCCCOc2ccccc2)cc1)Sc1ccc(C(=O)O)cc1` came in with a negative-log KB (pKB) of 6.5.

Consider `O=C(O)CCC[C@H](O)[C@@H](/C=C\CCCCCCCCCCCc1ccccc1)Sc1ccc(C(=O)O)cc1`, for which the inhibition constant (Ki) in [9] is 1260 nM. The same measure, in the same setting: in the case of `O=C(O)CCC[C@H](O)[C@@H](/C=C\CCCCCCCCOc1ccccc1)Sc1ccc(C(=O)O)cc1` it was 631 nM.

In turn, `O=C(O)CC(/C=C\Cc1ccc(OCCCCOc2ccccc2)cc1)Sc1ccc(C(=O)O)cc1` (stereo unspecified) yielded a negative logarithm of the KB (pKB) in experiment [7] of 6.9.

Regarding `O=C(O)CCC(/C=C/Cc1ccc(OCCCCOc2ccccc2)cc1)Sc1ccc(C(=O)O)cc1` (single isomer, unassigned; (+)), the Kb in experiment [2] is 3.98 nM.

In the case of `O=C(O)CCC[C@H](O)[C@@H](/C=C\Cc1ccccc1OCCCOc1ccccc1)Sc1ccc(C(=O)O)cc1`, the negative-log KB (pKB) in experiment [1] was less than 5. `O=C(O)CCC[C@H](O)[C@@H](/C=C/CCCc1ccccc1)Sc1ccc(C(=O)O)cc1` had an inhibition constant Ki in experiment [9] of more than 100000 nM. `O=C(O)CCCCC(/C=C\Cc1ccc(OCCCCOc2ccccc2)cc1)Sc1ccc(C(=O)O)cc1` (stereo unspecified): the values for the negative-log KB (pKB) in experiment [5] and in experiment [6] were 8.3 and 6.8, respectively.

As for `CCCCC/C=C\C\C=C/C=C/C=C/[C@@H](Sc1ccccc1C(=O)O)[C@@H](O)CCCC(=O)O`, the pD2 in the experiment listed under Cavia porcellus [10] was 6.9. In experiment [8], this molecule showed an inhibition constant Ki of 25.1 nM. In experiment [9], `O=C(O)CCC[C@H](O)[C@@H](/C=C\CCCCCc1ccccc1)Sc1ccc(C(=O)O)cc1` gave an inhibition constant Ki of 20000 nM. Take `CCCCC/C=C\C\C=C/C=C/C=C/[C@@H](SC[C@H](N)C(=O)NCC(=O)O)[C@@H](O)CCCC(=O)O` [LEUKOTRIENE D4]: the pD2 in the experiment filed under Cavia porcellus [10] is 8.4.

Take `O=C(O)CCC[C@H](O)[C@@H](/C=C\CCCCCCCCCc1ccccc1)Sc1ccc(C(=O)O)cc1`: the inhibition constant (Ki) in [9] is 251 nM. The same measure, in the same setting: next, `O=C(O)CCC[C@H](O)[C@@H](/C=C\CCc1ccccc1)Sc1ccc(C(=O)O)cc1`: more than 100000 nM. Same read-out and setting: next, `O=C(O)CCC[C@H](O)[C@@H](/C=C\CCCCCCCCc1ccccc1)Sc1ccc(C(=O)O)cc1`: 316 nM. In the experiment filed under Cavia porcellus [10], `CCCCC/C=C\C\C=C/C=C/C=C/[C@@H](Sc1cccc(C(=O)O)c1)[C@@H](O)CCCC(=O)O` yielded a pD2 of 8.2. Also, in experiment [8], the affinity, expressed as Ki, was 2 nM. The corresponding values for `CCCCC/C=C\C\C=C/C=C/C=C/[C@@H](SCC(=O)O)[C@@H](O)CCCC(=O)O` are 8.5 and 2 nM.
